This passage reports MIC, IC50 and Activity results from ChEMBL document CHEMBL1146594, “The leupyrrins: a structurally unique family of secondary metabolites from the myxobacterium Sorangium cellulosum” (J Nat Prod, 2003).

In one assay the test system is Candida albicans. The assay can be described thus: Antifungal activity against Candida albicans. The format is functional.
The test system of assay [1] is Rhodotorula glutinis. The experiment in a line: Antifungal activity against Rhodotorula glutinis. The format is functional.
A further assay deals with Aspergillus niger. The experiment in a line: Antifungal activity against Aspergillus niger. The format is functional.
For the next assay, the system named is Botrytis cinerea. The assay can be described thus: Antifungal activity against Botrytis cinerea. Type of assay: functional.
The next assay has as its system Mucor hiemalis. The experiment in a line: Antifungal activity against Mucor hiemalis. Type of assay: functional.
Another assay has as its system L929. The experiment in a line: Cytotoxicity against mouse L929 cells. Type of assay: cell-based.
In assay [2] the test system is Rhodotorula glutinis. The experiment in a line: Inhibition of DNA synthesis in Rhodotorula glutinis assessed as inhibition of [methyl-3H]thymine incorporation at 2.5 ug/mL after 30 mins. Type of assay: functional, organism-based.
The test system of assay [3] is Rhodotorula glutinis. The assay can be described thus: Inhibition of RNA synthesis in Rhodotorula glutinis assessed as inhibition of [2-14C]uracil incorporation at 2.5 ug/mL after 30 mins. The format is functional, organism-based.
Assay [4] concerns Rhodotorula glutinis. The experiment in a line: Inhibition of protein synthesis in Rhodotorula glutinis assessed as inhibition of [U-14C]protein hydrolysate incorporation at 2.5 ug/mL after 30 mins. The format is functional, organism-based.

Values after ≈ are worked out from the molar mass of the structure shown. Active and inactive are the calls of the source.

The MIC is the smallest concentration in the dilution series that meets the test's criterion for growth inhibition. Read a high MIC as a less susceptible organism. What is called IC50 is the concentration at which inhibition is half-maximal. A low value points to higher potency. `COCCC/C(C)=C1\COC(CC(C)C)\C1=C/C1N=C2OC1COC(=O)[C@@H](CC(C)C)CC(=O)OC1C(OC(=O)C1(C)CO)/C(C)=C/Cc1ccc2[nH]1` (some centres undefined) [LEUPYRRIN A1]: the MIC with Candida albicans was above 25 µg/mL; with Rhodotorula glutinis [1], 0.25 µg/mL (≈ 0.338 µM); in the assay on Aspergillus niger, 0.8 µg/mL (≈ 1.08 µM); in the assay with Botrytis cinerea, 0.8 µg/mL (≈ 1.08 µM); against Mucor hiemalis, 0.3 µg/mL (≈ 0.406 µM). Besides, in the assay on L929, 1 µg/mL (≈ 1.35 µM) corresponded to half-maximal inhibition (IC50). Also, the result in the assay on Rhodotorula glutinis [2], in the assay with Rhodotorula glutinis [3] and in the assay on Rhodotorula glutinis [4] was Active.
